Source: US12559863B2, “Macrocyclic modulators of disease associated protein misfolding and aggregation” (RESQ BIOTECH, priority 2017, dated 2026)
Where a SMILES comes first, the peptide text is derived from it.

Tests used:
[1] = system: C. elegans strain CL2006 (human Aβ42 in body wall muscle cells); test: Paralysis assay in C. elegans CL2006 fed peptide-producing E. coli OP50; assay type: in vivo, Caenorhabditis elegans; settings: fed throughout lifespan with E. coli OP50 producing the peptide
From the text: To evaluate the protective effects of the selected cyclic peptides against Aβ aggregation and toxicity in vivo, the inventors employed two established models of AD in the nematode worm Caenorhabditis elegans. The conservation of genetic and metabolic pathways between C. elegans and mammals, in combination with its completely characterized nervous and muscular system, its easy visualization and simple manipulation, has nominated C. elegans as an excellent model for neurodegenerative diseases including AD, while chemical screening against Aβ-induced toxicity in C. elegans is increasingly used in AD drug discovery. The inventors performed initially a paralysis assay in CL2006, a strain where human Aβ42 is constitutively expressed in the body wall muscle cells of the animals and Aβ aggregate formation is accompanied by adult-onset paralysis. […] To evaluate the state of Aβ aggregation in vivo, we utilized the strain CL2331, which expresses an Aβ3-42-GFP fusion in its body wall muscle cells upon temperature up-shift.

Aβ42-GFP = target: T1, Aβ42-GFP (Homo sapiens, UniProt P05067); test: High-throughput sequencing of pSICLOPPS vectors isolated after bacterial sorting for enhanced Aβ42-GFP fluorescence
T1 construct: a chimeric fusion of the human Aβ(1-42) peptide (Aβ42) with GFP; expressed in transfected cells; host or cells: E. coli BL21(DE3)
Procedure, shortened: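 E. coli BL21(DE3) expressing Aβ42-GFP from the T7 promoter was co-transformed with cyclic peptide libraries (0.002% L-arabinose, 0.1 mM IPTG at OD600 ~0.5, 37° C). High-fluorescence cells were sorted over repeated rounds. Plasmid peptide-encoding regions were then sequenced by Ion Torrent, discarding sequences with stop codons.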

[2] = system: primary mouse hippocampal neurons; test: MTT cell viability in primary hippocampal neurons; assay type: cell-based; settings: for neurotoxicity of Aβ40: 1 μM Aβ40, 1:1 and 2:1 peptides:Aβ; for neurotoxicity of Aβ40 / neurotoxicity of Aβ42: 24 h, MTT; for neurotoxicity of Aβ42: 1 μM Aβ42, 1:1 and 2:1 peptides:Aβ; for growth-promoting effects or cytotoxicity of peptide on its own: peptide alone, no Aβ
Description: The media/agents for primary neuronal cell cultures were purchased from Thermo Fisher Scientific (USA). Hippocampal neuronal cultures were obtained from postnatal day 1 female pups of C57BL/6 mice. Briefly, after being dissected, the hippocampus was incubated with 0.25% trypsin for 15 min at 37° C. The hippocampi were then rinsed in 10 mL of Hibernate containing 10% (v/v) heat-inactivated fetal bovine serum (FBS). Cultures were maintained in Neurobasal-A medium containing 2% B-27 supplement, 0.5 mM Gluta-MAX and 1% penicillin/streptomycin at 37° C. and 5% CO2. Half of the medium was replaced twice a week. Neuronal hippocampal cells were plated at a density of approximately 2×10^4 per well in 96-well plates and 5×10^5 per well in 24-well plates for MTT and induced cell death assays, respectively. After seven days of incubation in culture well plates, the primary hippocampal neurons were used for the cell viability measurements.
Solutions of synthetic Aβ40 or Aβ42 (10 μM) in PBS, preincubated at 37° C. (3 d for Aβ40 solutions and 1 d for Aβ42 solutions) in the presence or absence of synthetic cyclic peptides (1:1 and 2:1 ratio of peptides:Aβ), were diluted with fresh medium and transferred into wells at a 1 μM final Aβ concentration. Cell viability was determined using the MTT assay. MTT (3-[4,5-dimethylthiazol-2-yl]-2,5-diphenyl tetrazolium bromide) was purchased from Applichem (Germany). After 24 h of exposure to Aβ solutions, 100 μL of a 0.5 mg/mL stock solution of MTT in Neurobasal-A was added to each well of primary hippocampal neurons followed by a 3 h incubation at 37° C., while 100 μL of a 1 mg/mL stock solution of MTT in DMEM complete medium was added to each well of U87MG cells followed by a 4 h incubation at 37° C. The medium was then removed and the cells were diluted in DMSO. The relative formazan concentration was measured by determination of the absorbance at 540 nm using a plate reader (Tecan, Austria). Results were expressed as the percentage of MTT reduction, assuming that the absorbance of control (untreated) cells was 100%, and represent the mean of three independent experiments with six replicate wells for each condition. Induced cell death was also qualitatively examined by phase-contrast microscopy (Carl Zeiss, Axiovert 25 CFL, Germany) using the above solutions. In each run, the effect of solutions of plain synthetic peptides and plain Aβ40 or Aβ42 was independently checked to serve as internal control.

T1 sequence (P05067 672-713 limits assumed): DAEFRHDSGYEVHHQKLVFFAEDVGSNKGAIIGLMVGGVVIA

Row | Structure (SMILES) | appearance of paralysis phenotype, CL2006 [1] | Reads/Total SASPT-like reads (%) (Aβ42-GFP; Table 2) | Reads/Total pentapeptide reads (%) (Aβ42-GFP; Table 2) | Reads/Total peptide reads (%) (Aβ42-GFP; Table 2) | Number of reads (Aβ42-GFP; Table 2, after second round of sorting) | neurotoxicity of Aβ40 [2] | neurotoxicity of Aβ42 [2] | growth-promoting effects or cytotoxicity of peptide on its own [2] | Reads/Total TXXXR reads (%) (Aβ42-GFP; after the second round of bacterial sorting, relative to total TXXXR reads) | Reads/Total pentapeptide reads (%) (Aβ42-GFP; after the second round of bacterial sorting, relative to total pentapeptide reads) | Reads/Total peptide reads (%) (Aβ42-GFP; after the second round of bacterial sorting, relative to total peptide reads) | Number of reads (Aβ42-GFP; high-throughput sequencing of isolated pSICLOPPS-NuX1X2X3-X5 vectors after the second round of bacterial sorting for enhanced Aβ42-GFP fluorescence, selected cyclo-TXXXR pentapeptides)
1 | C[C@@H]1NC(=O)[C@H](CO)NC(=O)[C@H]([C@@H](C)O)NC(=O)[C@@H]2CCCN2C(=O)[C@H](CO)NC1=O [AβC5-34, cyclo-SASPT] (cyclo(ASPTS)) | significant delay | 97.349 | 0.632 | 0.567 | 25673 | markedly inhibit the neurotoxicity | markedly inhibit the neurotoxicity | did not exhibit general growth-promoting effects or considerable cytotoxicity | – | – | – | –
2 | C[C@@H]1NC(=O)[C@H]([C@@H](C)O)NC(=O)[C@H](CCCNC(=N)N)NC(=O)[C@H](CC(=O)O)NC(=O)[C@H](Cc2ccccc2)NC1=O [AβC5-116, cyclo-TAFDR] (cyclo(AFDRT)) | significant delay | – | – | – | – | markedly inhibit the neurotoxicity | markedly inhibit the neurotoxicity | did not exhibit general growth-promoting effects or considerable cytotoxicity | 0.223 | 0.105 | 0.094 | 4,243
